{
  "source": "patent US11458189B2",
  "about": "“Cytoprotective drugs” (BALMES TRANSPLANTATION, priority 2017, dated 2022)",
  "system": "Human Renal Glomerular Endothelial Cells (HRGEC)",
  "test": "Oxygen and glucose deprivation followed by replenishment, cell survival (calcein AM), HRGEC",
  "assay_type": "cell-based",
  "description": "Anidulafungin and micafungin were tested on Human Renal Glomerular Endothelial Cells (HRGEC, Innoprot P10665), on Human Renal Proximal Tubular Epithelial Cells (HRPTEpiC, Innoprot P10662), on Human Astrocytes (HA, caltag SC-1800), on Human Cardiac Microvascular Endothelial Cells (HCMEC, Caltag SC-6000), on Human Hepatic Sinusoidal Endothelial Cells (HHSEC, Caltag SC-5000), on Rat Primary Kidney Glomerular Endothelial cells (Cellbiologics, RN-6014G) and on Bovine Brain Microvascular Endothelial Cells (BBMEC, Caltag SC-B100).\nIn a first phase, these isolated, purified and cryopreserved cells are thawed and multiplied according to the supplier's recommendations in T75 or T175 flasks pre-coated with 2 μg of fibronectin/[…] (CORNING) for HRGEC, HCMEC, HHSEC and BBMEC, or 2 μg poly-L-lysin/cm^2 (Caltag SC-0403) for HRPTEpiC and HA, or 15 mL/flask 175 cm^2 gelatin-based solution (Cellbiologics) in the presence of endothelial cell supplemented growth medium ECM (P60104, INNOPROT, Caltag, SC-1001) for HRGEC, HCMEC, HHSEC, RPKGEC or BBMEC, or astrocyte cell supplemented growth medium AM (Caltag SC-1801) for HA or epithelial cell supplemented growth medium EpiCM (P60106, INNOPROT) for HRPTEpiC, at 37° C. under 5% CO2 and saturated humidity until their confluency. They are then harvested by trypsinization according to the method described by the supplier for exactly 5 minutes and then reseeded in new flasks a maximum of three times.\nTo carry out the oxygen and glucose deprivation test followed by their replenishment, the cells will be seeded in 96-well black plates with transparent flat bottom (GREINER). Once a sufficient number of cells has been obtained to allow seeding of 2000 to 15000 cells per well of 96-well plates depending on the cell type, the cells are seeded in these 96-well plates previously coated with an extracellular matrix as listed above for the flasks. The cells are cultured for 5 to 8 days according to the cell type, in the presence of the same growth medium as in the flask as described above except for HRGEC and HRPTEpiC for which DMEM (DUTSCHER) with 1 g/L of supplemented glucose is used, at 37° C. under 5% CO2 and saturated humidity to obtain confluency.\nOn the first day of oxygen and glucose deprivation, (5th, 6th, 7th or 8th day of culture), the culture conditions are drastically changed. The medium of all plates is removed and replaced by DMEM (DUTSCHER) medium without glucose and supplemented only with 1% penicillin-streptomycin (DUTSCHER). Anidulafungin or micafungin dissolved in dimethyl sulfoxide (DMSO) is then added to each well at the desired concentration, resulting in a maximum of 1% DMSO, and the plates are placed under hypoxia at <1% 02 and 5% CO2 at 37° C. for 24 hours of culture. Each compound was tested in a concentration range.\nAfter 24 hours, the growth medium is changed and replaced by a richer medium, DMEM (DUTSCHER) at 1 g/L glucose and 2% FBS (INNOPROT) and 1% penicillin-streptomycin (DUTSCHER). These media will have been pre-equilibrated at 37° C. in advance. The cells are then returned to culture at 37° C. under 20% 02 and 5% CO2 for 22h.\nAfter 22 hours of reoxygenation, the potential protective effect of anidulafungin or micafungin is measured by a cell viability test using calcein AM (CORNING), which is a dye substrate. The calcein AM can easily cross the cell membrane of the viable cells. The AM ester groups mask the part of the molecule that chelates calcium. Once inside the cells, the (non-fluorescent) calcein AM is hydrolyzed to (fluorescent) calcein by endogenous esterases. The resulting calcein molecule binds to calcium inside the cell and remains trapped inside the cell. These molecules emit strong green fluorescence when subjected to […] of a particular wavelength (495 nm). Since dead cells lack esterase activity, only living cells are labelled.\nThis cell viability test is performed in two steps. […]",
  "key": {"[1]": {"conditions": "[Anidulafungin] log μM 0.7781513"}, "[2]": {"conditions": "[Anidulafungin] log μM 1.079181"}, "[3]": {"conditions": "[Anidulafungin] log μM 1.255273"}},
  "note": "Starred links: 1 amine or outer side, 2 acyl side, 3 side chain; linkers in the order of their positions; H or OH if unused. Positions of bridges follow the written chain, without caps; N, C: chain ends. Non-standard residues stand in square brackets, D forms with d. Residues, ends and D or L forms follow the SMILES beside them. ξ: configuration not given here. *: point of attachment. pTerphenylCO(4''-OnC5H11) = CCCCCOc1ccc(-c2ccc(-c3ccc(C(=O)*)cc3)cc2)cc1; Orn(4R-OH,5R-OH) = O=C([C@H](C[C@@H](O)[C@@H](O)N[*:3])N[*:1])[*:2]; hTyr(3S-OH,4S-OH) = N[C@H](C(=O)O)[C@H](O)[C@@H](O)c1ccc(O)cc1; Pro(3S-OH,4S-Me) = C[C@H]1CN[C@H](C(=O)O)[C@H]1O; ξPro(4R-OH) = O=C(O)C1C[C@@H](O)CN1",
  "data": [
    {"smiles": "CCCCCOc1ccc(-c2ccc(-c3ccc(C(=O)N[C@H]4C[C@@H](O)[C@@H](O)NC(=O)[C@@H]5[C@@H](O)[C@@H](C)CN5C(=O)[C@H]([C@@H](C)O)NC(=O)[C@H]([C@H](O)[C@@H](O)c5ccc(O)cc5)NC(=O)C5C[C@@H](O)CN5C(=O)[C@H]([C@@H](C)O)NC4=O)cc3)cc2)cc1", "note": "(stereo partly drawn) [Anidulafungin] ({pTerphenylCO(4''-OnC5H11)}-[Orn(4R-OH,5R-OH)]T[ξPro(4R-OH)][hTyr(3S-OH,4S-OH)]T[Pro(3S-OH,4S-Me)]; lactam 1-C)", "values": [
      {"measurement": "Globalfluo assay 1", "setting": "[Anidulafungin] log μM 0", "value": 1595273, "unit": "arbitrary units"},
      {"measurement": "Globalfluo assay 2", "setting": "[Anidulafungin] log μM 0", "value": 2299957, "unit": "arbitrary units"},
      {"measurement": "Globalfluo assay 3", "setting": "[Anidulafungin] log μM 0", "value": 2320330, "unit": "arbitrary units"},
      {"measurement": "Mean globalfluo", "setting": "[Anidulafungin] log μM 0", "value": 2071853, "unit": "arbitrary units"},
      {"measurement": "Survival rate (%)", "setting": "[Anidulafungin] log μM 0", "value": "−6", "unit": "%"},
      {"measurement": "Globalfluo assay 1", "setting": "[Anidulafungin] log μM 0.30103", "value": 3108717, "unit": "arbitrary units"},
      {"measurement": "Globalfluo assay 2", "setting": "[Anidulafungin] log μM 0.30103", "value": 8079028, "unit": "arbitrary units"},
      {"measurement": "Globalfluo assay 3", "setting": "[Anidulafungin] log μM 0.30103", "value": 4587276, "unit": "arbitrary units"},
      {"measurement": "Mean globalfluo", "setting": "[Anidulafungin] log μM 0.30103", "value": 5258340, "unit": "arbitrary units"},
      {"measurement": "Survival rate (%)", "setting": "[Anidulafungin] log μM 0.30103", "value": 7, "unit": "%"},
      {"measurement": "Globalfluo assay 1", "setting": "[Anidulafungin] log μM 0.60206", "value": 6404501, "unit": "arbitrary units"},
      {"measurement": "Globalfluo assay 2", "setting": "[Anidulafungin] log μM 0.60206", "value": 5391467, "unit": "arbitrary units"},
      {"measurement": "Globalfluo assay 3", "setting": "[Anidulafungin] log μM 0.60206", "value": 4055726, "unit": "arbitrary units"},
      {"measurement": "Mean globalfluo", "setting": "[Anidulafungin] log μM 0.60206", "value": 5283898, "unit": "arbitrary units"},
      {"measurement": "Survival rate (%)", "setting": "[Anidulafungin] log μM 0.60206", "value": 7, "unit": "%"},
      {"measurement": "Globalfluo assay 1", "setting": "[1]", "value": 1844220, "unit": "arbitrary units"},
      {"measurement": "Globalfluo assay 2", "setting": "[1]", "value": 8446890, "unit": "arbitrary units"},
      {"measurement": "Globalfluo assay 3", "setting": "[1]", "value": 6499110, "unit": "arbitrary units"},
      {"measurement": "Mean globalfluo", "setting": "[1]", "value": 5596740, "unit": "arbitrary units"},
      {"measurement": "Survival rate (%)", "setting": "[1]", "value": 8, "unit": "%"},
      {"measurement": "Globalfluo assay 1", "setting": "[Anidulafungin] log μM 0.90309", "value": 7152564, "unit": "arbitrary units"},
      {"measurement": "Globalfluo assay 2", "setting": "[Anidulafungin] log μM 0.90309", "value": 8021501, "unit": "arbitrary units"},
      {"measurement": "Globalfluo assay 3", "setting": "[Anidulafungin] log μM 0.90309", "value": 6792572, "unit": "arbitrary units"},
      {"measurement": "Mean globalfluo", "setting": "[Anidulafungin] log μM 0.90309", "value": 7322212, "unit": "arbitrary units"},
      {"measurement": "Survival rate (%)", "setting": "[Anidulafungin] log μM 0.90309", "value": 15, "unit": "%"},
      {"measurement": "Globalfluo assay 1", "setting": "[Anidulafungin] log μM 1", "value": 8082278, "unit": "arbitrary units"},
      {"measurement": "Globalfluo assay 2", "setting": "[Anidulafungin] log μM 1", "value": 8981812, "unit": "arbitrary units"},
      {"measurement": "Globalfluo assay 3", "setting": "[Anidulafungin] log μM 1", "value": 10460790, "unit": "arbitrary units"},
      {"measurement": "Mean globalfluo", "setting": "[Anidulafungin] log μM 1", "value": 9174960, "unit": "arbitrary units"},
      {"measurement": "Survival rate (%)", "setting": "[Anidulafungin] log μM 1", "value": 23, "unit": "%"},
      {"measurement": "Globalfluo assay 1", "setting": "[2]", "value": 12175690, "unit": "arbitrary units"},
      {"measurement": "Globalfluo assay 2", "setting": "[2]", "value": 10104310, "unit": "arbitrary units"},
      {"measurement": "Globalfluo assay 3", "setting": "[2]", "value": 9396440, "unit": "arbitrary units"},
      {"measurement": "Mean globalfluo", "setting": "[2]", "value": 10558813, "unit": "arbitrary units"},
      {"measurement": "Survival rate (%)", "setting": "[2]", "value": 28, "unit": "%"},
      {"measurement": "Globalfluo assay 1", "setting": "[Anidulafungin] log μM 1.20412", "value": 12170420, "unit": "arbitrary units"},
      {"measurement": "Globalfluo assay 2", "setting": "[Anidulafungin] log μM 1.20412", "value": 9545764, "unit": "arbitrary units"},
      {"measurement": "Globalfluo assay 3", "setting": "[Anidulafungin] log μM 1.20412", "value": 9735499, "unit": "arbitrary units"},
      {"measurement": "Mean globalfluo", "setting": "[Anidulafungin] log μM 1.20412", "value": 10483894, "unit": "arbitrary units"},
      {"measurement": "Survival rate (%)", "setting": "[Anidulafungin] log μM 1.20412", "value": 28, "unit": "%"},
      {"measurement": "Globalfluo assay 1", "setting": "[3]", "value": 10855790, "unit": "arbitrary units"},
      {"measurement": "Globalfluo assay 2", "setting": "[3]", "value": 12347330, "unit": "arbitrary units"},
      {"measurement": "Globalfluo assay 3", "setting": "[3]", "value": 7837444, "unit": "arbitrary units"},
      {"measurement": "Mean globalfluo", "setting": "[3]", "value": 10346855, "unit": "arbitrary units"},
      {"measurement": "Survival rate (%)", "setting": "[3]", "value": 27, "unit": "%"},
      {"measurement": "Globalfluo assay 1", "setting": "[Anidulafungin] log μM 1.30103", "value": 10143140, "unit": "arbitrary units"},
      {"measurement": "Globalfluo assay 2", "setting": "[Anidulafungin] log μM 1.30103", "value": 10354290, "unit": "arbitrary units"},
      {"measurement": "Globalfluo assay 3", "setting": "[Anidulafungin] log μM 1.30103", "value": 10227990, "unit": "arbitrary units"},
      {"measurement": "Mean globalfluo", "setting": "[Anidulafungin] log μM 1.30103", "value": 10241807, "unit": "arbitrary units"},
      {"measurement": "Survival rate (%)", "setting": "[Anidulafungin] log μM 1.30103", "value": 27, "unit": "%"}
    ]}
  ]
}
